Legend:
[1] = tested on: HEK 293 cells; experiment: cytotoxicity of CXL-1 on cells during in vivo cross-linking; type: cell-based
Procedure: Tagged Cul1 was induced with 1.0 μg/mL tetracycline for 4 hours in experiments for in vivo cross-linking. Twenty four hours after induction, cells were subject to in vivo cross-linking by treating 0, 0.1, 0.2, 0.5, and 1.0 mM of CXL-1, respectively, and incubated for 1 h at 37° C. After the completion of the cross-linking, cells were lysed for 30 minutes at 4° C. with the lysis buffer (0.050 M HEPES, pH 7.5, 0.0050 M Mg(OAc)2, 0.070 M KOAc, 10% glycerol, and 0.4% IGEPAL CA630). The lysate was centrifuged at 16,600 g at 4° C. for 20 min and the supernatant was used for Western blot analysis.
Cul1 is a ubiquitin ligase that attaches a ubiquitin chain on target substrates for proteasome-catalyzed degradation (Deshaies, R. J. Annu. Rev. Cell Dev. Biol. 1999, 15, 435). Cul1 is a prototype of the cullin ligase family, and constitutes modular ligase complexes with other binding partners. […] Secondly, if cytoplasmic Cul1 protein is cross-linked by CXL-1, the postulated cell permeability and water solubility from the design of CXL-1 can be verified. FIG. 11 depicts the Western blot analysis of cross-linked Cul1 samples acquired from in vivo cross-linking of HEK 293 cells. From the observation of the higher molecular weight band, Cul1 is cross-linked by CXL-1 in a range of approximately 0.5 to 1.0 mM. […] Accordingly, CXL-1 is compatible with the cellular environment for in vivo cross-linking.

[2] = water solubility of CXL-1 verified by in vivo cross-linking; type: physicochemical; settings: PBS; inferred from in vivo cross-linking of Cul1
Procedure: (§1) To test the cell permeability and water solubility of CXL-1, in vivo cross-linking of HEK 293 cells, followed by Western blot analysis of the Cul1 protein were performed. The in vivo cross-linking of HEK 293 cells by CXL-1, followed by Western blot analysis was carried out as described previously with minor modifications (Lee et al., Mol. Cell. Proteomics 2010, Electronic preprint. doi:10.1074/mcp.M110.006460.) Briefly, to facilitate the purification of Cul1, a HEK 293-derived stable cell line capable of expressing tagged Cul1 upon tetracycline treatment was constructed using the T-REx™ (Tetracycline-regulated Expression) system (Invitrogen, Carlsbad, Calif.). The tandem tag used here consists of a hexa-histidine sequence and a biotinylation signal sequence (Tagwerker et al., 2006). Biotinylation is catalyzed by endogenous biotin ligases, which are present in all eukaryotic cells (Cronan J. Biol. Chem. 1990, 265, 10327). A specific lysine residue in the biotinylation signal sequence functions as an acceptor site for biotin in vivo (Kulman et al., Protein Expr. Purif. 2007, 52, 320).
Cul1 is a ubiquitin ligase that attaches a ubiquitin chain on target substrates for proteasome-catalyzed degradation (Deshaies, R. J. Annu. Rev. Cell Dev. Biol. 1999, 15, 435). Cul1 is a prototype of the cullin ligase family, and constitutes modular ligase complexes with other binding partners. […]

[3] = molecular target: T1, ubiquitin (Homo sapiens, UniProt P0CG47); experiment: circular dichroism spectrometry of CXL-1 cross-linked ubiquitin; settings: CD spectra, 0.25 or 1 mM CXL-1, t=0 and t=30 min, 1×PBS pH 7.4 (FIG. 10)
T1 construct: cross-linking of ubiquitin (PDB ID: 1 UBQ)
Procedure: The CXL-1 cross-linked ubiquitin samples were analyzed by an Aviv Model 62A DS Circular Dichroism (CD) Spectrometer (Lakewood, N.J.) at room temperature. The critical instrumental parameters included: acquisition range=200 to 300 nm, step size=1.00 nm, averaging time=5 s, bandwidth=1 nm, and path length=1 mm. One scan was recorded for each spectrum. For CXL-1 cross-linked samples, 1 to 4 μL of 50 mM CXL-1 stock solution in DMSO was added to 196 to 199 μL of 0.1 mg/mL ubiquitin in 1×PBS pH 7.4 to yield a final concentration of 0.25 to 1 mM CXL-1 in 200 CD spectra were collected upon addition of CXL-1 (t=0) and after 30 min of cross-linking reaction (t=0.5 h).
Circular dichroism (CD) spectrometry is a useful analytical technique for quick investigation of secondary structure, folding, and binding properties of peptides and proteins (Greenfield, N. J. Nat. Protocols 2007, 1, 2876). […] The CD spectra of native ubiquitin were previously recorded, yielding the secondary structure analysis of 6% α-helix, 10% β-sheet and 84% random structures, which can be observed as increasingly negative ellipticity over the range of 225 to 240 nm (Jenson et al., Biochim. Biophys. Acta 1980, 624, 378, the entire contents of which are herein incorporated by reference). […]

[4] = molecular target: T2, Cul1 protein (Homo sapiens, UniProt Q13616); experiment: in vivo cross-linking of HEK 293 cells followed by Western blot analysis of Cul1; type: cell-based; settings: inferred from cross-linking of cytoplasmic Cul1 in HEK 293 cells
T2 construct: expressed in transfected cells
T2 sequence (Q13616 whole entry): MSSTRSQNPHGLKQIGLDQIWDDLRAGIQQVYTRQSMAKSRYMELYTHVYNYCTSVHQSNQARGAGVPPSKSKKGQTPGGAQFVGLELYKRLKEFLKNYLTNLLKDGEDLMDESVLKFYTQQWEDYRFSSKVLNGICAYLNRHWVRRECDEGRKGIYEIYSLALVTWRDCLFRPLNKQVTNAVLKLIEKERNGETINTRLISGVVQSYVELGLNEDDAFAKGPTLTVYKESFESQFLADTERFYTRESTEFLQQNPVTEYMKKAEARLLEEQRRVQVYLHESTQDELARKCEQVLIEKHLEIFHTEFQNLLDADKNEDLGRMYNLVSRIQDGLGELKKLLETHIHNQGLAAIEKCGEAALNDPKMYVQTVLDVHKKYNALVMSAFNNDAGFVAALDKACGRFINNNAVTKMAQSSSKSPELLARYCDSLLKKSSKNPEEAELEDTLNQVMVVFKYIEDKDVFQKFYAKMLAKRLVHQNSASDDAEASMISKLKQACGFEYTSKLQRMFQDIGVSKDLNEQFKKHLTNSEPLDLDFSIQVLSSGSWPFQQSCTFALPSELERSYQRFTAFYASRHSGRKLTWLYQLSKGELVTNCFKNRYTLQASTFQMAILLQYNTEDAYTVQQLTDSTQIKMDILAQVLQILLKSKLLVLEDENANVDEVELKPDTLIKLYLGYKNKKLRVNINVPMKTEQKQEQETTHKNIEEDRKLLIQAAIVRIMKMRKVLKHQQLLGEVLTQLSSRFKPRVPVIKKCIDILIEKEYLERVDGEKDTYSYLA
Procedure: as §1
Tagged Cul1 was induced with 1.0 μg/mL tetracycline for 4 hours in experiments for in vivo cross-linking. Twenty four hours after induction, cells were subject to in vivo cross-linking by treating 0, 0.1, 0.2, 0.5, and 1.0 mM of CXL-1, respectively, and incubated for 1 h at 37° C. […]

NHS-activated 2,2′-(hex-5-ynylazanediyl)diacetic acid [CXL-1]
cytotoxic activity on cells ([1]; CXL-1 in working concentration ranges): no or minimal cytotoxic activity
cell toxicity ([1]; treatment of CXL-1 up to 1 mM, HEK 293 cells, 1 h at 37° C.): did not induce any significant cell toxicity
solubility [2]: soluble in PBS
contribution of CXL-1 on ubiquitin secondary structure [3]: minimal or undetectable
cell permeability [4]: cell-permeable

Reference: patent US8778626B2, “Clickable cross-linker” (California Institute of Technology, priority 2010, dated 2014)
